# Results reported in patent US5621133A (priority 1995, dated 1997).
# Structures can show the parent of a compound that is named as a salt. Where two headings read alike, the source gives them in different places.
# Columns and labels:
# dopamine D-1 receptor [1] = settings: for Intrinsic Activity (adenylate cyclase assay): dopamine = 100, goldfish retina or rat striatum; for EC50: read-out: EC50 (agonist activity in adenylate cyclase assay), tissue from goldfish retina or rat striatum
# Procedure: In order to determine agonist activity, cell-free tissue homogenates are incubated in an ionic buffer solution containing ATP and the compound being evaluated. The tissue was obtained from either goldfish retina or rat striatum.
# dopamine D-2 receptor = dopamine D-2 receptor (Rattus norvegicus, UniProt P61169); test: biochemical; assay type: binding
# dopamine D-2 receptor, sequence (P61169 whole entry): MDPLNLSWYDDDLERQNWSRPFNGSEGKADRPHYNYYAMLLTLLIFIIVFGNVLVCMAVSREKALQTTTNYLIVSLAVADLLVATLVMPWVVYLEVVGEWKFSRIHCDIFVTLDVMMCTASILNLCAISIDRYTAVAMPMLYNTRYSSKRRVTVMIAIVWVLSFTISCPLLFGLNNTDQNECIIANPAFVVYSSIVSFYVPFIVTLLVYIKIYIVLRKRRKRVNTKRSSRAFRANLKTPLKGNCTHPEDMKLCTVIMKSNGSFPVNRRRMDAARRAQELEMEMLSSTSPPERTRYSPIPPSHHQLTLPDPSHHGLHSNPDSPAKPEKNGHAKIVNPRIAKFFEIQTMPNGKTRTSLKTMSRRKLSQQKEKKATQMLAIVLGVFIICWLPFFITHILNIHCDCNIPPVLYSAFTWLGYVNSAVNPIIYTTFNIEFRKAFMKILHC
# Procedure: Homogenized rat caudate was the source of the D-2 receptors. […] The molar affinity of the compound for the receptor binding site was calculated by the same method used for the D-1 receptor assay, assuming a competitive interaction between the compound and the radiolabeled ligand.
# dopamine D-1 receptor [2] = biological target: dopamine D-1 receptor (Rattus norvegicus, UniProt P18901); test: biochemical; settings: D-1 Ki, rat caudate, [125I]SCH-23982
# dopamine D-1 receptor (Rattus norvegicus, UniProt P18901), sequence (P18901 whole entry): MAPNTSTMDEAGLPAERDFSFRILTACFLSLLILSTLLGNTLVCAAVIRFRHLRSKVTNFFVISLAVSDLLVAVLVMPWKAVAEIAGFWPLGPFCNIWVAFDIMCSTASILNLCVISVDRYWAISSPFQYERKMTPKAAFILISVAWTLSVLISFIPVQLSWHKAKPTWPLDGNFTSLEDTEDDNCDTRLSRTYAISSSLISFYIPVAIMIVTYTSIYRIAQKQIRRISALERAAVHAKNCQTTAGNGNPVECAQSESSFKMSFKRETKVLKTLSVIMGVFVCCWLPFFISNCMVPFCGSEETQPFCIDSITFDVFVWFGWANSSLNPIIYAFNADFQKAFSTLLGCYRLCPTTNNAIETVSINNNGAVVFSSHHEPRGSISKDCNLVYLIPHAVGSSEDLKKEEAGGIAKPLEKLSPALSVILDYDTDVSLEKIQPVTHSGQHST
# From the text: The compounds compete with the radiolabeled ligand for occupancy of the receptors and the molar potency of each compound was quantified.
# The Ki values are inversely proportional to the affinity of the compound for the receptor.
# [3] = rat caudate, [125I]-p-aminophenylethyl spiroperidol, read-out: D-2 Ki
SMILES,Intrinsic Activity (adenylate cyclase assay) (dopamine D-1 receptor [1]),Ki (dopamine D-2 receptor; [3]),Ki (dopamine D-1 receptor [2]),further results
"Cc1cc2c(c(O)c1O)C[C@@H](C1CCCCC1)O[C@H]2CN (relative stereo) [Example 177, [1,3-cis]1-Aminomethyl-3-cyclohexyl-3,4-dihydro-5,6-dihydroxy-7-methyl-1H-2-benzopyran Hydrochloride]",62,6600 nM,130 nM,EC50 (dopamine D-1 receptor [1]): 170 nM
NC[C@@H]1O[C@H](c2ccc(Br)cc2)Cc2c1ccc(O)c2O (relative stereo) [Example 69],108,2700 nM,87 nM,EC50 (dopamine D-1 receptor [1]): 72 nM
NC[C@H]1O[C@@H](c2ccccc2)Cc2c1ccc(O)c2O (relative stereo) [Example 49],,1000 nM,,
"NC[C@@H]1O[C@H](C23CC4CC(CC(C4)C2)C3)Cc2c(O)c(O)cc(Br)c21 (relative stereo) [Example 107, 1-Aminomethyl-8-bromo-adamantyl-5,6-dihydroxy-3,4-dihydro-1H-2-benzopyran Hydrobromide]",,> 10000 nM,2500 nM,
NCC1=CC(c2ccccc2)Cc2c1ccc(OC(=O)NCc1ccccc1)c2OC(=O)NCc1ccccc1 (centres unmarked) [Example 30],,,> 10000 nM,"Ki (dopamine D-2 receptor; D-2 Ki, rat caudate, [125I]-p-aminophenylethyl spiroperidol): 32000 nM"
"NC[C@H]1Cc2c(ccc(O)c2O)[C@@H](CN)O1 (relative stereo) [Example 154, [1,3-cis]1,3-Bis(aminomethyl)-3,4-dihydro-5,6-dihydroxy-1H-2-benzopyran Dihydrochloride]",95,17000 nM,1400 nM,EC50 (dopamine D-1 receptor [1]): 100 nM
CCCCC[C@H]1Cc2c(ccc(O)c2O)[C@@H](CNC)O1 (relative stereo) [Example 144],107,91 nM,,
NC[C@@H]1O[C@H](C23CC4CC(CC(C4)C2)C3)Cc2c1cc(F)c(O)c2O [Example 103],88,2000 nM,,
"CNC[C@H]1O[C@@H](C2CCCCC2)Cc2c1ccc(O)c2O (relative stereo) [Example 111, [1,3-cis]3-Cyclohexyl-5,6-dihydroxy-1-methylaminomethyl-3,4-dihydro-1H-2-benzopyran Hydrochloride]",,720 nM,,
NCC1=CC(c2cccc3ccccc23)Cc2c1ccc(O)c2O (centres unmarked) [Example 41],81,2500 nM,700 nM,EC50 (dopamine D-1 receptor [1]): 1800 nM
Oc1ccc2c(c1O)C[C@@H](c1ccccc1)C1=C2CNCC1 [Example 201],110,1500 nM,,
CC(C)(C)C1Cc2c(ccc(O)c2O)C2=C1CCNC2 (centres unmarked) [Example 203],0,4300 nM,1000 nM,EC50 (dopamine D-1 receptor [1]): > 10000 nM
NCC1OC2(CCOCC2)Cc2c1ccc(O)c2O (centres unmarked) [Example 95],104,> 10000 nM,520 nM,EC50 (dopamine D-1 receptor [1]): 100 nM
C=CCN(C)C[C@H]1O[C@@H](CCCCCC)Cc2c1ccc(O)c2O (relative stereo) [Example 121],51,,,EC50 (dopamine D-1 receptor [1]): 21000 nM
"O=CO.Oc1ccc2c(c1O)CC(c1ccccc1)C1=C2CNC1 (centres unmarked) [Example 184, 6,7-Dihydroxy-4-phenyl-2,3,4,5-tetrahydro-1H-benz[e]isoindole Formic Acid Salt]",47,> 10000 nM,70 nM,EC50 (dopamine D-1 receptor [1]): 22 nM
NCC1CC2(CCCCCCCC2)Cc2c1ccc(O)c2O (centres unmarked) [Example 236],36,> 10000 nM,4400 nM,EC50 (dopamine D-1 receptor [1]): 700 nM
CN(C)C[C@@H]1O[C@H](C2(C)CCCCC2)Cc2c1ccc(O)c2O (relative stereo) [Example 230],59,> 10000 nM,26 nM,EC50 (dopamine D-1 receptor [1]): 120 nM
C=CCN(C)C[C@H]1O[C@@H](C2CCCCC2)Cc2c1ccc(O)c2O (relative stereo) [Example 120],,3000 nM,,
"CC(=O)NCC1=CC(c2ccccc2)Cc2c1ccc(O)c2O (centres unmarked) [Example 213, 1-Acetylaminomethyl-3-phenyl-5,6-dihydroxy-3,4-dihydronaphthalene]",70,,,
"Br.N[C@@H]1CCc2cc(O)c(O)c3c2[C@H]1C[C@H](c1ccccc1)C3 (relative stereo) [Example 182, [1R*,8S*,9aR*]1-Amino-5,6-dihydroxy-8-phenyl-2,3,7,8,9,9a-hexahydro-phenalene Hydrobromide]",65,2200 nM,,
CC(C)(C)CC1Cc2c(ccc(O)c2O)C2=C1CCNC2 (centres unmarked) [Example 242],,2000 nM,1500 nM,
Oc1ccc2c(c1O)CC1(CCCCCCC1)C1=C2CNCC1 [Example 207],64,1200 nM,,
CC(C)(C)C1Cc2c(ccc(O)c2O)C(CN)O1 (centres unmarked) [Example 102],113,> 10000 nM,,
"Br.N[C@H]1CCc2cc(O)c(O)c3c2[C@H]1C[C@H](c1ccccc1)C3 (relative stereo) [Example 183, [1S*,8S*,9aR*]1-Amino-5,6-dihydroxy-8-phenyl-2,3,7,8,9,9a-hexahydrophenalene Hydrobromide]",56,> 10000 nM,,
C#CCN(C)C[C@H]1O[C@@H](C2CCCCC2)Cc2c1ccc(O)c2O (relative stereo) [Example 119],,> 10000 nM,,
CCCC1(CCC)C=C(CN)c2ccc(O)c(O)c2C1 [Example 192],,> 10000 nM,3200 nM,
NC[C@@H]1O[C@H](c2cccc(O)c2)Cc2c1ccc(O)c2O (relative stereo) [Example 70],,650 nM,,

SMILES,Intrinsic Activity (adenylate cyclase assay) (dopamine D-1 receptor [1]),Ki (dopamine D-2 receptor; [3]),Ki (dopamine D-1 receptor [2]),further results
NCC1OC(c2ccccc2)Cc2c1ccc(O)c2O (centres unmarked) [Example 96],,870 nM,,
Oc1ccc2c(c1O)CC(c1ccccc1)C1=C2CNCC1 (centres unmarked) [Example 200],120,3300 nM,,
Oc1ccc2c(c1O)C[C@@H](c1ccccc1)O[C@H]2[C@@H]1CCCN1 [Example 124],,470 nM,1900 nM,
Oc1ccc2c(c1O)CC(c1ccccc1)C1=C2CNCC1 (centres unmarked) [Example 239],103,2000 nM,,
NC[C@H]1O[C@@H](C2CCCCC2)Cc2c1ccc(O)c2O (relative stereo) [Example 50],,,,Ki (dopamine D-2 receptor; D-2 Ki): 1200 nM
CN(C)C[C@H]1O[C@@H](CC2CCCCC2)Cc2c1ccc(O)c2O (relative stereo) [Example 148A],,2600 nM,710 nM,
Oc1ccc2c(c1O)CC1(CCCCCC1)C1CCNCC21 (centres unmarked) [Example 252],49,,,
NC[C@@H]1O[C@H](C2CCCCCCC2)Cc2c1ccc(O)c2O (relative stereo) [Example 76],,440 nM,,
CC(C)(C)CC1C=C(CN)c2ccc(O)c(O)c2C1 (centres unmarked) [Example 233],,> 10000 nM,3200 nM,
COc1ccc(CC2Cc3c(ccc(O)c3O)C(CN)O2)cc1 (centres unmarked) [Example 83],,4500 nM,,
NC[C@H]1O[C@@H](C23CC4CC(CC(C4)C2)C3)Cc2c1cc(F)c(O)c2O (relative stereo) [Example 106],65,> 10000 nM,,
Oc1ccc2c(c1O)CC(C13CC4CC(CC(C4)C1)C3)C1=C2CNCC1 (centres unmarked) [Example 238],,> 10000 nM,5100 nM,
NC[C@@H]1O[C@H](C(c2ccccc2)c2ccccc2)Cc2c1ccc(O)c2O (relative stereo) [Example 71],,2800 nM,,
CN1CCC2=C(C1)c1ccc(O)c(O)c1CC2CC1CCCC1 (centres unmarked) [Example 245],,180 nM,350 nM,
CC(C)(C)[C@H]1Cc2c(ccc(O)c2O)[C@@H](CN)O1 (relative stereo) [Example 100],,54000 nM,,
COC(=O)CCC(=O)Oc1ccc2c(c1OC(=O)CCC(=O)OC)CC(c1ccccc1)C=C2CN (centres unmarked) [Example 19],,> 10000 nM,600 nM,
C=CCCCC[C@@H]1Cc2c(ccc(O)c2O)[C@H](CN)O1 (relative stereo) [Example 66],84,640 nM,,
Oc1ccc2c(c1O)CC(C1CCCCC1)C1=C2CNCC1 (centres unmarked) [Example 202],84,1600 nM,,
"C#CC[C@H]1Cc2c(ccc(O)c2O)[C@@H](CN)O1 (relative stereo) [Example 110, [1,3-cis]1-Aminomethyl-5,6-dihydroxy-3-(3'-prop-1'-ynyl)-3,4-dihydro-1H-2-benzopyran Hydrochloride]",,1100 nM,,
C=CC[C@H]1Cc2c(ccc(O)c2O)[C@@H](CN)O1 (relative stereo) [Example 101],119,,,
CCCC1(CCC)Cc2c(ccc(O)c2O)C(CN)C1 (centres unmarked) [Example 198],,,3700 nM,
CN1CCC2=C(C1)c1ccc(O)c(O)c1CC21CCCCCCCC1 [Example 248],,880 nM,580 nM,
CCCC1(CCC)Cc2c(ccc(O)c2O)C2=C1CCNC2 [Example 208],,3100 nM,530 nM,
"CC(C)(C)[C@H]1Cc2c(ccc(O)c2O)[C@@H](CN)O1 (relative stereo) [Example 48, [1,3-cis]1-Aminomethyl 3-t-butyl-5,6-dihydroxy-3,4-dihydro-1H-2-benzopyran Hydrochloride]",112,13000 nM,,
NC[C@@H]1O[C@H](c2ccccc2)Cc2c1ccc(O)c2O [Example 54],,910 nM,,
"NCC1=CC2(CCCCCC2)Cc2c1ccc(O)c2O [Example 188, 1'-Aminomethyl-5,6'-dihydroxyspiro[cycloheptane-1,3'-(3',4'-dihydro-2'-H-naphthalene)]hydrobromide]",,7000 nM,2000 nM,
CC(C)(C)[C@@H]1Cc2c(ccc(O)c2O)[C@H](CN)C1 (relative stereo) [Example 195],73,,250 nM,EC50 (dopamine D-1 receptor [1]): 400 nM
